Data from publication PMC9000336, “Development of Bicyclo[3.1.0]hexane-Based A3 Receptor Ligands: Closing the Gaps in the Structure–Affinity Relationships” (Molecules, 2022).
Where two headings read alike, the source gives them in different places.

Key:
[1] = target: T1, human adenosine A2A receptor (Homo sapiens, UniProt P29274); experiment: Radioligand displacement assay, human adenosine A2A receptor ([3H]ZM241385, HEK293hA2AR membranes); assay type: binding; settings: for A2A displacement at 10 µM: test compound 10 µM; for A2A displacement at 10 µM / Ki: n = 3
T1 construct: expressed in transfected cells; host or cells: HEK293 cells (HEK293hA2AR), from Dr. J. Wang (Biogen/IDEC); membrane preparation
T1 sequence (P29274 whole entry): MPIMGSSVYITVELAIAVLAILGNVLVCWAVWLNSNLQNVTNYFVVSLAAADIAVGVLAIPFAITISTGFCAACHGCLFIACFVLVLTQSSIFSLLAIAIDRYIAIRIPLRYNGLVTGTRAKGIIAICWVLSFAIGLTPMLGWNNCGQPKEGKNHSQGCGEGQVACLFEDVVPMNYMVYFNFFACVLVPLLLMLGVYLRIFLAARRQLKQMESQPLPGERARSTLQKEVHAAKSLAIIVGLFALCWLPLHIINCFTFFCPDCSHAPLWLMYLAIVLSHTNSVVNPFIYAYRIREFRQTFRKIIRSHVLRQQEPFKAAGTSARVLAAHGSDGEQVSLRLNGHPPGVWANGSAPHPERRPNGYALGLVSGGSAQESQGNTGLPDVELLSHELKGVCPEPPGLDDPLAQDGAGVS
Description: Human embryonic kidney 293 cells stably expressing the human adenosine A2A receptor (HEK293hA2AR) were kindly provided by Dr. J. Wang (Biogen/IDEC, Cambridge, MA, USA), CHO-spap cells stably expressing the wild-type (WT) hA2B receptor (CHO-spap-hA2BR) were kindly provided by S. J. Dowell (GlaxoSmithKline, Brentfort, UK).
(§1) All cells were grown to 80–90% confluency and detached from plates by scraping them into 5 mL phosphate-buffered saline. Detached cells were collected and centrifuged at 200 g for 5 min. Pellets derived from 100 15 cm Ø plates were pooled and resuspended in 70 mL of ice-cold 50 mM tris(hydroxymethyl)aminomethane (Tris)-HCl buffer, pH 7.4. A Heidolph Diax 900 homogenizer was used to homogenize the cell suspension. Membranes and the cytosolic fraction were separated by centrifugation at 100,000 g in a Beckman Optima LE-80 K ultracentrifuge (Beckman Coulter, Fullerton, CA, USA) at 4 °C for 20 min. The pellet was resuspended in 35 mL of the Tris-HCl buffer, and the homogenization and centrifugation steps were repeated. Tris-HCl buffer (25 mL) was used to resuspend the pellet, and adenosine deaminase (ADA) was added (0.8 U/mL) to break down endogenous adenosine. Membranes were stored in 250 µL and 500 µL aliquots at −80 °C. Total protein concentrations were measured using the bicinchoninic acid (BCA) method.
(§2) Nonspecific binding was determined in the presence of 100 µM adenosine-5-N-ethyluronamide (NECA). Incubations were terminated by rapid vacuum filtration to separate the bound and free radioligand through prewetted 96-well GF/B filter plates using a PerkinElmer Filtermate-harvester (Perkin Elmer, Groningen, The Netherlands). Filters were subsequently washed 12 times with ice-cold 50 mM Tris-HCl, pH 7.4.
(§3) The plates of all four adenosine receptor assays were dried at 55 °C after which MicroscintTM-20-cocktail was added (Perkin Elmer, Groningen, The Netherlands).
(§4) All experimental data were analyzed using the non-linear regression curve fitting program GraphPad Prism 7.0 (GraphPad Software Inc., San Diego, CA, USA). IC50 values obtained from competition displacement binding data were converted into Ki values using the Cheng–Prusoff equation.

[2] = target: T2, human adenosine A1 receptor (Homo sapiens, UniProt P30542); experiment: Radioligand displacement assay, human adenosine A1 receptor ([3H]DPCPX, CHOhA1R membranes); assay type: binding; settings: for inhibition at 10 µM: test compound 10 µM; for Ki: [3H]DPCPX, read-out: A1 Ki ± SEM
T2 construct: expressed in transfected cells; host or cells: CHO cells (CHOhA1R), gift of Prof; S. J. Hill; membrane preparation
T2 sequence (P30542 1-326): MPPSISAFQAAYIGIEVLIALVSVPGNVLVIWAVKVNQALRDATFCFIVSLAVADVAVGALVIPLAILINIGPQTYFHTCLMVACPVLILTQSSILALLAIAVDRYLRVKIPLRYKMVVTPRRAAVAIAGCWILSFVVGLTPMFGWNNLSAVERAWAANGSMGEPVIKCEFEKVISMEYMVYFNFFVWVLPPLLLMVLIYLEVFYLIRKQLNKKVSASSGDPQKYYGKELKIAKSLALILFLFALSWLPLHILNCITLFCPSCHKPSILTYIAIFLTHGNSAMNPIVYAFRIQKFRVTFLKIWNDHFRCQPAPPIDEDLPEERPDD
Description: as §1, with “Chinese hamster ovary (CHO) cells stably expressing the human adenosine A1 receptor (CHOhA1R) were kindly provided by Prof. S. J. Hill and CHO cells stably expressing the human adenosine A3 receptor (CHOhA3R) were a gift from Dr. K.-N. Klotz (University of Würzburg, Germany). Chinese hamster ovary cells stably expressing the human A1-receptor (CHOhA1R) or the human A3-receptor (CHOhA3R) were grown in Dulbecco’s Modified Eagle’s Medium (DMEM) and Ham’s F12 medium (1:1) supplemented with 10% (v/v) newborn calf serum, 50 µg/mL streptomycin, 50 IU/mL penicillin, and 200 µg/mL G418 at 37 °C and 5% CO2. […] All” for “All”
as §2, with “A1 Receptor: Membrane aliquots containing 5 µg (CHOhA1R) protein were incubated in a total volume of 100 µL assay buffer (50 mM Tris-HCl, pH 7.4) at 25 °C for 1 h. […] Nonspecific” for “Nonspecific”, “N^6-cyclopentyladenosine (CPA).” for “adenosine-5-N-ethyluronamide (NECA).”, “the” for “The”
as §3, §4

[3] = [3H]ZM241385, read-out: A2A Ki ± SEM

| A2A displacement at 10 µM [1] [%] | inhibition at 10 µM ([2]; n = 3) [%] | SMILES | also measured |
| --- | --- | --- | --- |
| 4 | 5 | Nc1cc(Cl)c2ncn([C@H]3[C@H](O)[C@H](O)[C@]4(CO)C[C@H]34)c2n1 [Compound 11, (1R,2R,3S,4R,5S)-4-(5-Amino-7-chloro-3H-imidazo[4,5-b]pyridin-3-yl)-1-(hydroxymethyl)bicyclo[3.1.0]hexane-2,3-diol] | – |
| 42 | 32 | Nc1cc(Cl)nc2c1ncn2[C@H]1[C@H](O)[C@H](O)[C@]2(CO)C[C@H]12 [Compound 16, (1R,2R,3S,4R,5S)-4-(7-Amino-5-chloro-3H-imidazo[4,5-b]pyridin-3-yl)-1-(hydroxymethyl)bicyclo[3.1.0]hexane-2,3-diol] | – |
| 3 | 23 | CSc1cc(N)c2ncn([C@H]3[C@H](O)[C@H](O)[C@]4(CO)C[C@H]34)c2n1 [Compound 17, (1R,2R,3S,4R,5S)-4-(7-Amino-5-methylthio-3H-imidazo[4,5-b]pyridin-3-yl)-1-(hydroxymethyl)bicyclo[3.1.0]hexane-2,3-diol] | – |
| 9 | 25 | OC[C@@]12C[C@@H]1[C@@H](n1cnc3c(N(Cc4ccccc4)Cc4ccccc4)ncnc31)[C@H](O)[C@@H]2O [Compound 26, (1R,2R,3S,4R,5S)-4-[6-(Dibenzylamino)-9H-purin-9-yl]-1-(hydroxymethyl)bicyclo[3.1.0]hexane-2,3-diol] | – |
| – | 15 | OC[C@@]12C[C@@H]1[C@@H](n1cnc3c(N(Cc4ccccc4)Cc4ccccc4)nc(Cl)nc31)[C@H](O)[C@@H]2O [Compound 27, (1R,2R,3S,4R,5S)-4-[6-(Dibenzylamino)-2-chloro-9H-purin-9-yl]-1-(hydroxymethyl)bicyclo[3.1.0]hexane-2,3-diol] | Ki [1, 3]: > 10 µM |
| 13 | 30 | CSc1nc(N(Cc2ccccc2)Cc2ccccc2)c2ncn([C@H]3[C@H](O)[C@H](O)[C@]4(CO)C[C@H]34)c2n1 [Compound 30, (1R,2R,3S,4R,5S)-4-[6-(Dibenzylamino)-2-methylthio-9H-purin-9-yl]-1-(hydroxymethyl)bicyclo[3.1.0]hexane-2,3-diol] | – |
| 3 | 5 | CSc1nc(N)c2ncn([C@H]3[C@H](O)[C@H](O)[C@]4(Cn5cc(CN)nn5)C[C@H]34)c2n1 [Compound 43, (1R,2R,3S,4R,5S)-4-(6-Amino-2-methylthio-9H-purin-9-yl)-1-{[4-(aminomethyl)-1H-1,2,3-triazol-1-yl]methyl}bicyclo[3.1.0]hexane-2,3-diol] | – |

The next lines start with the molecule.

| SMILES | A2A displacement at 10 µM [1] [%] | inhibition at 10 µM ([2]; n = 3) [%] | also measured |
| --- | --- | --- | --- |
| OC[C@@]12C[C@@H]1[C@@H](n1cnc3c(Cl)cc(Cl)nc31)[C@H](O)[C@@H]2O [Compound 12, (1R,2R,3S,4R,5S)-4-(5,7-Dichloro-3H-imidazo[4,5-b]pyridin-3-yl)-1-(hydroxymethyl)bicyclo[3.1.0]hexane-2,3-diol] | – | – | Ki [1, 3]: > 10 µM; Ki ([2]; n = 3): > 10 µM |
| OC[C@@]12C[C@@H]1[C@@H](n1cnc3c(NCc4ccccc4)cc(Cl)nc31)[C@H](O)[C@@H]2O [Compound 13, (1R,2R,3S,4R,5S)-4-[7-(Benzylamino)-5-chloro-3H-imidazo[4,5-b]pyridin-3-yl]-1-(hydroxymethyl)bicyclo[3.1.0]hexane-2,3-diol] | 13 | 25 | – |
| CSc1cc(NCc2ccccc2)c2ncn([C@H]3[C@H](O)[C@H](O)[C@]4(CO)C[C@H]34)c2n1 [Compound 14, (1R,2R,3S,4R,5S)-4-[7-(Benzylamino)-5-methylthio-3H-imidazo[4,5-b]pyridin-3-yl]-1-(hydroxymethyl)bicyclo[3.1.0]hexane-2,3-diol] | 4 | 20 | – |
| COc1ccc(CNc2cc(Cl)nc3c2ncn3[C@H]2[C@H](O)[C@H](O)[C@]3(CO)C[C@H]23)cc1 [Compound 15, (1R,2R,3S,4R,5S)-4-{5-Chloro-7-[(4-methoxy)benzylamino]-3H-imidazo[4,5-b]pyridin-3-yl}-1-(hydroxymethyl)bicyclo[3.1.0]hexane-2,3-diol] | 2 | 12 | – |
| CSc1nc(N(Cc2ccccc2)Cc2ccccc2)c2ncn([C@H]3[C@H](O)[C@H](O)[C@]4(CCl)C[C@H]34)c2n1 [Compound 31, (1S,2R,3S,4R,5S)-4-[6-(Dibenzylamino)-2-methylthio-9H-purin-9-yl]-1-(chloromethyl)bicyclo[3.1.0]hexane-2,3-diol] | – | 21 | Ki [1, 3]: > 10 µM |
| Nc1ncnc2c1ncn2[C@H]1[C@H](O)[C@H](O)[C@]2(CO)C[C@H]12 [Compound 36, (N)-methanocarba adenosine] | – | – | Ki [1, 3]: 1.81 ± 0.11 µM; fold lower affinity towards A2A receptor than A3 ([1]; relative to A3 Ki): 2 fold; Ki ([2]; n = 3): 6.1 ± 0.46 µM; fold lower affinity towards A1 receptor than A3 ([2]; relative to A3 Ki): 6 fold |
| CSc1nc(N)c2ncn([C@H]3[C@H](O)[C@H](O)[C@]4(Cn5cc(CO)nn5)C[C@H]34)c2n1 [Compound 39, (1R,2R,3S,4R,5S)-4-(6-Amino-2-methylthio-9H-purin-9-yl)-1-{[4-(hydroxymethyl)-1H-1,2,3-triazol-1-yl]methyl}bicyclo[3.1.0]hexane-2,3-diol] | 11 | 5 | – |
| COC(=O)c1cn(C[C@@]23C[C@@H]2[C@@H](n2cnc4c(N)nc(SC)nc42)[C@H](O)[C@@H]3O)nn1 [Compound 40, Methyl 1-{[(1R,2R,3S,4R,5S)-4-(6-amino-2-methylthio-9H-purin-9-yl)-2,3-dihydroxybicyclo[3.1.0]hex-1-yl]methyl}-1H-1,2,3-triazole-4-carboxylate] | 3 | 7 | – |
| COC(=O)Cc1cn(C[C@@]23C[C@@H]2[C@@H](n2cnc4c(N)nc(SC)nc42)[C@H](O)[C@@H]3O)nn1 [Compound 41, Methyl 2-(1-{[(1R,2R,3S,4R,5S)-4-(6-amino-2-methylthio-9H-purin-9-yl)-2,3-dihydroxybicyclo[3.1.0]hex-1-yl]methyl}-1H-1,2,3-triazol-4-yl)acetate] | – | – | Ki ([1]; footnote a: tested at 1 µM, read-out: A2A Ki (bound, footnote a)): > 1 µM; A1 displacement at 1 µM ([2]; footnote a: test compound 1 µM, n = 3): 2% ^a |
| COC(=O)CCc1cn(C[C@@]23C[C@@H]2[C@@H](n2cnc4c(N)nc(SC)nc42)[C@H](O)[C@@H]3O)nn1 [Compound 42, Methyl 3-(1-{[(1R,2R,3S,4R,5S)-4-(6-amino-2-methylthio-9H-purin-9-yl)-2,3-dihydroxybicyclo[3.1.0]hex-1-yl]methyl}-1H-1,2,3-triazol-4-yl)propanoate] | 29 | 19 | – |
